Results: patent US5208152A, “Catalysts of Diels-Alder reactions, methods and catalysts therefor” (The Scripps Research Institute, priority 1992, dated 1993)

System: monoclonal catalytic antibody 1E9 (reductively methylated), secreted by hybridoma 1E9, ATCC HB 10261
Experiment: Antibody-catalyzed Diels-Alder [4+2] cycloaddition/fragmentation reaction between TCTD and N-ethylmaleimide
Format: biochemical, mouse
Excerpt: Because TCTD reacts with lysine residues on the surface of the immunoglobulins, it was necessary to reduce the nucleophilicity of the amino groups by exhaustive reductive methylation [Jentoft et al., J. Biol. Chem., 254:4359 (1979)]. […] Chemical modification of immunoglobulins in this way is likely to be of general value, as it will permit reactive molecules like epoxides, Michael acceptors or other alkylating agents to be employed as substrates for catalytic antibodies.
The methylated antibodies were assayed at 25 degrees C. for their ability to promote the Diels-Alder [4+2] cycloaddition/fragmentation reaction between TCTD and N-ethylmaleimide (NEM) in aqueous buffer (20 mM MES, 100 mM NaCl, pH 6.0) containing 10 percent acetonitrile. Cycloadditions were followed by monitoring the disappearance of TCTD at 330 nm or by analytical reverse-phase HPLC. HPLC kinetic assays were performed on a Vydac C-18 218-TP-510 reverse phase column (10 mm×25 cm, 2 mL/min, gradient elution from 100 percent H2 O to 60:40 CH3 CN:H2 O in 20 minutes, then 5 minutes at the latter solvent composition) using acetophenone as an internal standard.

SMILES | inhibition of the catalyzed reaction (preincubation of the antibody with an equimolar amount of the inhibitor) | apparent kcat (NEM concentration varied, 0.61 mM TCTD held constant, 25 degrees C, 20 mM MES, 100 mM NaCl, pH 6.0, 10 percent acetonitrile) [s⁻¹] | Km (NEM concentration varied, 0.61 mM TCTD held constant, 25 degrees C, 20 mM MES, 100 mM NaCl, pH 6.0, 10 percent acetonitrile, read-out: apparent (Km)NEM) [mM]
CCN1C(=O)C2C(C1=O)C1(Cl)C(Cl)=C(Cl)C2(Cl)C1(Cl)Cl (stereo not drawn) [Compound 3] | stopped the oatalyzed reaction completely | – | –
CCN1C(=O)C=CC1=O [NEM, N-ethylmaleimide] | – | 0.0717 ± 0.005 | 21 ± 4
